{"source": "patent US20250009713A1", "about": "(priority 2021, published 2025)", "assay_type_in_all_cases": "cell-based", "key": {"[1]": {"system": "SARS-COV-2 US-PHC658/2021 (delta variant; NR-55611)", "assay": "microbe, parasite or virus in culture", "conditions": "PCR, Calu-3, virus Delta"}, "[2]": {"system": "SARS-COV-2 USA/MD-HP20874/2021 (omicron variant; NR-56461)", "assay": "microbe, parasite or virus in culture", "conditions": "PCR, Calu-3, virus Omicron"}, "[3]": {"system": "SARS-COV-2 SouthAfrica/KRISP-K005325/2020 (beta variant; NR-54009)", "assay": "microbe, parasite or virus in culture", "conditions": "PCR, Calu-3, virus SA"}, "[4]": {"system": "SARS-COV-2 England/204820464/2020 (alpha variant; NR-54000)", "assay": "microbe, parasite or virus in culture", "conditions": "PCR, Calu-3, virus UK"}, "[5]": {"system": "SARS-COV-2 US-PHC658/2021 (delta variant; NR-55611)", "assay": "microbe, parasite or virus in culture", "conditions": "PCR, Vero, virus Delta"}, "[6]": {"system": "SARS-COV-2 USA/MD-HP20874/2021 (omicron variant; NR-56461)", "assay": "microbe, parasite or virus in culture", "conditions": "PCR, Vero, virus Omicron"}, "[7]": {"system": "SARS-COV-2 SouthAfrica/KRISP-K005325/2020 (beta variant; NR-54009)", "assay": "microbe, parasite or virus in culture"}, "[8]": {"system": "SARS-COV-2 England/204820464/2020 (alpha variant; NR-54000)", "assay": "microbe, parasite or virus in culture"}, "[9]": {"system": "SARS-COV-2 US-PHC658/2021 (delta variant; NR-55611)", "assay": "microbe, parasite or virus in culture", "conditions": "Plaque, Calu-3, virus Delta"}, "[10]": {"system": "SARS-COV-2 USA/MD-HP20874/2021 (omicron variant; NR-56461)", "assay": "microbe, parasite or virus in culture", "conditions": "Plaque, Calu-3, virus Omicron"}, "[11]": {"system": "SARS-COV-2 SouthAfrica/KRISP-K005325/2020 (beta variant; NR-54009)", "assay": "microbe, parasite or virus in culture", "conditions": "Plaque, Calu-3, virus SA"}, "[12]": {"system": "SARS-COV-2 England/204820464/2020 (alpha variant; NR-54000)", "assay": "microbe, parasite or virus in culture", "conditions": "Plaque, Calu-3, virus UK"}, "[13]": {"system": "SARS-COV-2 US-PHC658/2021 (delta variant; NR-55611)", "assay": "microbe, parasite or virus in culture", "conditions": "Plaque, Vero, virus Delta"}, "[14]": {"system": "SARS-COV-2 USA/MD-HP20874/2021 (omicron variant; NR-56461)", "assay": "microbe, parasite or virus in culture", "conditions": "Plaque, Vero, virus Omicron"}, "[15]": {"system": "SARS-COV-2 SouthAfrica/KRISP-K005325/2020 (beta variant; NR-54009)", "assay": "microbe, parasite or virus in culture", "conditions": "Plaque, Vero, virus SA"}, "[16]": {"system": "SARS-COV-2 England/204820464/2020 (alpha variant; NR-54000)", "assay": "microbe, parasite or virus in culture", "conditions": "Plaque, Vero, virus UK"}, "[17]": {"system": "SARS-COV-2 strain US (US-WA1/2020)", "assay": "plaque assay, strain US, summary over cell types", "conditions": "Severe acute respiratory syndrome coronavirus 2, two-way ANOVA estimate"}, "[18]": {"conditions": "Severe acute respiratory syndrome coronavirus 2, m.o.i 0.1, […]"}, "[19]": {"conditions": "PCR, Vero, virus SA, log-logistic curve fit"}, "[20]": {"conditions": "Severe acute respiratory syndrome coronavirus 2, Vero"}, "[21]": {"conditions": "PCR, Vero, virus UK, log-logistic curve fit"}}}
{"smiles": "Cn1cc(-c2cccc3cc(C(=O)NC(=N)N)ccc23)cn1", "note": "[BIT225, N-carbamimidoyl-5-(1-methyl-1H-pyrazol-4-yl)-2-naphthamide]", "values": [{"measurement": "Max. Response (d)", "setting": "[1]; log-logistic curve fit", "value": 2.56, "unit": "log10"}, {"measurement": "Slope (b)", "setting": "[1]; log-logistic curve fit", "value": 1.08, "unit": "nmol⁻¹"}, {"measurement": "EC50", "setting": "[1]; [18]", "value": 4.81, "unit": "µM"}, {"measurement": "Max. Response (d)", "setting": "[2]; log-logistic curve fit", "value": 2.57, "unit": "log10"}, {"measurement": "Slope (b)", "setting": "[2]; log-logistic curve fit", "value": 1.08, "unit": "nmol⁻¹"}, {"measurement": "EC50", "setting": "[2]; [18]", "value": 4.37, "unit": "µM"}, {"measurement": "Max. Response (d)", "setting": "[3]; log-logistic curve fit", "value": 2.67, "unit": "log10"}, {"measurement": "Slope (b)", "setting": "[3]; log-logistic curve fit", "value": 1.07, "unit": "nmol⁻¹"}, {"measurement": "EC50", "setting": "[3]; [18]", "value": 4.17, "unit": "µM"}, {"measurement": "Max. Response (d)", "setting": "[4]; log-logistic curve fit", "value": 2.58, "unit": "log10"}, {"measurement": "Slope (b)", "setting": "[4]; log-logistic curve fit", "value": 1.21, "unit": "nmol⁻¹"}, {"measurement": "EC50", "setting": "[4]; [18]", "value": 2.86, "unit": "µM"}, {"measurement": "Max. Response (d)", "setting": "[5]; log-logistic curve fit", "value": 3.55, "unit": "log10"}, {"measurement": "Slope (b)", "setting": "[5]; log-logistic curve fit", "value": 1.15, "unit": "nmol⁻¹"}, {"measurement": "EC50", "setting": "[5]; [18]", "value": 3.59, "unit": "µM"}, {"measurement": "Max. Response (d)", "setting": "[6]; log-logistic curve fit", "value": 3.51, "unit": "log10"}, {"measurement": "Slope (b)", "setting": "[6]; log-logistic curve fit", "value": 1.22, "unit": "nmol⁻¹"}, {"measurement": "EC50", "setting": "[6]; [18]", "value": 3.37, "unit": "µM"}, {"measurement": "Max. Response (d)", "setting": "[7]; [19]", "value": 3.52, "unit": "log10"}, {"measurement": "Slope (b)", "setting": "[7]; [19]", "value": 1.28, "unit": "nmol⁻¹"}, {"measurement": "EC50", "setting": "[7]; [20]", "value": 2.65, "unit": "µM"}, {"measurement": "Max. Response (d)", "setting": "[8]; [21]", "value": 3.58, "unit": "log10"}, {"measurement": "Slope (b)", "setting": "[8]; [21]", "value": 1.07, "unit": "nmol⁻¹"}, {"measurement": "EC50", "setting": "[8]; [20]", "value": 4.56, "unit": "µM"}, {"measurement": "Max. Response (d)", "setting": "[9]; log-logistic curve fit", "value": 3.44, "unit": "log10"}, {"measurement": "Slope (b)", "setting": "[9]; log-logistic curve fit", "value": 1.00, "unit": "nmol⁻¹"}, {"measurement": "EC50", "setting": "[9]; [18]", "value": 7.9, "unit": "µM"}, {"measurement": "Max. Response (d)", "setting": "[10]; log-logistic curve fit", "value": 3.42, "unit": "log10"}, {"measurement": "Slope (b)", "setting": "[10]; log-logistic curve fit", "value": 1.11, "unit": "nmol⁻¹"}, {"measurement": "EC50", "setting": "[10]; [18]", "value": 7.61, "unit": "µM"}, {"measurement": "Max. Response (d)", "setting": "[11]; log-logistic curve fit", "value": 3.52, "unit": "log10"}, {"measurement": "Slope (b)", "setting": "[11]; log-logistic curve fit", "value": 1.34, "unit": "nmol⁻¹"}, {"measurement": "EC50", "setting": "[11]; [18]", "value": 6.79, "unit": "µM"}, {"measurement": "Max. Response (d)", "setting": "[12]; log-logistic curve fit", "value": 3.43, "unit": "log10"}, {"measurement": "Slope (b)", "setting": "[12]; log-logistic curve fit", "value": 1.15, "unit": "nmol⁻¹"}, {"measurement": "EC50", "setting": "[12]; [18]", "value": 5.72, "unit": "µM"}, {"measurement": "Max. Response (d)", "setting": "[13]; log-logistic curve fit", "value": 6.45, "unit": "log10"}, {"measurement": "Slope (b)", "setting": "[13]; log-logistic curve fit", "value": 1.48, "unit": "nmol⁻¹"}, {"measurement": "EC50", "setting": "[13]; [18]", "value": 6.65, "unit": "µM"}, {"measurement": "Max. Response (d)", "setting": "[14]; log-logistic curve fit", "value": 6.31, "unit": "log10"}, {"measurement": "Slope (b)", "setting": "[14]; log-logistic curve fit", "value": 1.41, "unit": "nmol⁻¹"}, {"measurement": "EC50", "setting": "[14]; [18]", "value": 6.5, "unit": "µM"}, {"measurement": "Slope (b)", "setting": "[15]; log-logistic curve fit", "value": 1.50, "unit": "nmol⁻¹"}, {"measurement": "EC50", "setting": "[15]; [18]", "value": 7.26, "unit": "µM"}, {"measurement": "Max. Response (d)", "setting": "[16]; log-logistic curve fit", "value": 6.41, "unit": "log10"}, {"measurement": "EC50", "setting": "[16]; [18]", "value": 6.7, "unit": "µM"}, {"measurement": "EC50", "setting": "[17]", "value": 3.8, "unit": "µM"}]}
